Where a SMILES comes first, the peptide text is derived from it. The star is where a group is joined. Cbz = O=C(OCc1ccccc1)*
Experiments:
[1] = target: SDS-activated 20S proteasome from rabbit muscle (Oryctolagus cuniculus, UniProt G1SU71+G1T4Q9); experiment: Kinetic assay: inhibition of the 20S proteasome; assay type: biochemical
Experimental: (§1) P, AA^1, AA^2, AA^3, and Z^1 and Z^2 represent the structures present on formula (1) or (2). The protocol for the kinetic assay described in Tables II-V is as described in Rock et al., Cell 78:761-771 (1994). In these tables, Ki values are reported, which are dissociation constants for the equilibrium that is established when enzyme and inhibitor interact to form the enzyme:inhibitor complex. The reactions were performed using SDS-activated 20S proteasome from rabbit muscle. The substrate used was Suc-LLVY-AMC.

NF-κB = experiment: Activation of NF-κB, electrophoretic mobility shift assay in TNF-α stimulated MG63 osteosarcoma cells; assay type: cell-based; conditions: pretreatment for 1 hour, PRDII probe, FIG. 2
Experimental: Compounds can be tested for their ability to inhibit the activation of NF-κB by means of a DNA binding assay (Palombella, et al., Cell 78:773 (1994)). Whole-cell extracts are prepared from untreated or TNF-α treated cells that have been pretreated for 1 hour with the test compound. The DNA binding activity of NF-κB is measured by an electrophoretic mobility shift assay using the PRDII probe from the human IFN-β gene promoter.
This assay was performed as previously described (Palombella, et al. Cell, 78:773-785 (1994)). MG63 osteosarcoma cells were stimulated by treatment with TNF-α for the designated times. Whole cell extracts were prepared and analyzed by electrophoretic mobility shift assay using the PRDII probe from the human IFN-β gene promoter.

Cathepsin B = Cathepsin B (Homo sapiens, UniProt P07858); experiment: Kinetic assay: inhibition of Cathepsin B; assay type: biochemical; conditions: Table IV
Source text: [Worded in the source for another target; this target is reported under the same test.] as §1, with “Table II summarizes results from kinetic experiments that measured the inhibition of the 20S proteasome by compounds having the formula of compound (1) or (2). P,” for “P,”

C2C12 cells = experiment: Inhibition of protein degradation in C2C12 cells; assay type: cell-based, mouse; conditions: 35S-methionine labelled cells, percent decrease in TCA soluble radioactivity, media with 50% serum
Experimental: One approach to testing drug candidates for their ability to inhibit the ATP-ubiquitin-dependent degradative process is to measure proteolysis in cultured cells (Rock, et al., Cell 78:761 (1994)). For example, the degradation of long-lived intracellular proteins can be measured in mouse C2C12 myoblast cells. Cells are incubated with ^35S-methionine for 48 hours to label long-lived proteins and then chased for 2 hours with medium containing unlabeled methionine. After the chase period, the cells are incubated for 4 hours in the presence or absence of the test compound. The amount of protein degradation in the cell can be measured by quantitating the trichloroacetic acid soluble radioactivity released from the pre-labeled proteins into the growth medium (an indicator of intracellular proteolysis).
C2C12 cells (a mouse myoblast line) were labelled for 48 hrs with ^35S-methionine. The cells were then washed and preincubated for 2 hrs in the same media supplemented with 2 mM unlabelled methionine. The media was removed and replaced with a fresh aliquot of the preincubation media containing 50% serum, and a concentration of the compound to be tested. The media was then removed and made up to 10% TCA and centrifuged. The TCA soluble radioactivity was counted. Inhibition of proteolysis was calculated as the percent decrease in TCA soluble radioactivity.

Cathepsin G = target: T1, Cathepsin G (Homo sapiens, UniProt P08311); experiment: Kinetic assay: inhibition of Cathepsin G; assay type: biochemical; conditions: Table V
T1 sequence (P08311 21-244): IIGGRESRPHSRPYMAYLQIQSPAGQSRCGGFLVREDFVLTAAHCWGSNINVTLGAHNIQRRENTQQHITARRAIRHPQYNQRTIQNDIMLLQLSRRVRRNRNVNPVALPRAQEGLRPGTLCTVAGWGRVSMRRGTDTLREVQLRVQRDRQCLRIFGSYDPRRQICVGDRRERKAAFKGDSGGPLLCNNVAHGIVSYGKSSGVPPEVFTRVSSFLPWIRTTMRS

mice = experiment: DTH response (contact sensitivity, ear swelling) in mice; assay type: in vivo, mouse; conditions: oral, ear swelling approximately 18 hours after challenge
Source text: Compounds can also be tested for their ability to inhibit a delayed-type hypersensitivity response in mice. Contact hypersensitivity is a manifestation of an in vivo T-cell mediated immune response (Friedmann, Curr. Opinion Immunology, 1:690693 (1989)). Although the exact molecular mechanisms that regulate the cellular interactions and vascular changes involved in the response remain obscure, it is clear that the process is dependent upon the interplay of soluble mediators, adhesion molecules, and the cytokine network (Piguet, et al., J. Exp. Med. 173:673-679 (1991); Nickoloff, et al. J. Invest. Dermatol. 94:151S-157S (1990)). NF-κB, by mediating events such as the production of cytokines and the induction and utilization of cell-surface adhesion molecules, is a central and coordinating regulator involved in immune responses.
Naive nice were sensitized by the application of 20 μL of a 0.5% (v/v) solution of 2,4-dinitrofluorobenzene in 4:1 acetone/olive oil to both of the rear limb footpads. This procedure is performed on two consecutive days, which are referred to as days 0 and 1.
The efferent phase of the contact sensitivity response was elicited on day 5 by the application of 10 μL of a 0.2% (v/v) solution of 2,4-dinitrofluorobenzene in 4:1 acetone/olive oil to both sides of the left ear. The contralateral control ear was treated on both sides with 10 μL of vehicle only. The mice were lightly anaesthetized for this procedure by the intraperitoneal (i.p.) injection of a mixture of ketamine.(80 mg/kg, Henry Schein) and xylazine (16 mg/kg, Henry Schein). […]
Approximately 18 hours after the challenge, ear swelling was determined by measuring both the control and the experimental ear using a Mitutoyo Digital micrometer. The absolute difference in thickness of the experimental (left) ears vs. the control (right) ears was determined for each treatment group. Efficacy was determined by comparing this difference in thickness to the difference calculated for the vehicle control group.

Human Leukocyte Elastase = target: T2, Human Leukocyte Elastase (Homo sapiens, UniProt P08246); experiment: Kinetic assay: inhibition of Human Leukocyte Elastase; assay type: biochemical; conditions: Table V
T2 sequence (P08246 30-267): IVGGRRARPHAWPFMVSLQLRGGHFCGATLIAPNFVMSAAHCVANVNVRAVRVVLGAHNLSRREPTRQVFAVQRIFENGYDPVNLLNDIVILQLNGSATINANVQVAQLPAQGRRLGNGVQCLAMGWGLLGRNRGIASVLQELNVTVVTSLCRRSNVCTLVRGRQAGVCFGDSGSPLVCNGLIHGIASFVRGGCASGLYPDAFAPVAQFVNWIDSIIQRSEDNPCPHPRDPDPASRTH

[2] = Table II, SDS-activated 20S proteasome from rabbit muscle, substrate Suc-LLVY-AMC

Compound | Ki [1, 2] | IC50 (C2C12 cells; Mus musculus, C2C12) | IC50 (C2C12 cells) | other results
CSCCC(C=O)NC(=O)C(CC(C)C)NC(=O)C(CC(C)C)NC(C)=O [MG-102, Ac-L-Leu-L-Leu-L-Met-H, reference compound] (Ac-Leu-Leu-Met-aldehyde; configuration not given here) |  |  |  | activity against the 20S proteasome [1]: inactive; NF-κB binding activity (NF-κB): did not inhibit
CC(C)C[C@@H](C=O)NC(=O)[C@H](CC(C)C)NC(=O)[C@H](CC(C)C)NC(=O)OCc1ccccc1 [MG-132, Cbz-L-Leu-L-Leu-L-Leu-H] (Cbz-Leu-Leu-Leu-aldehyde) |  |  |  | NF-κB binding activity (NF-κB): inhibited
CC(=O)N[C@@H](CC(C)C)C(=O)N[C@@H](CC(C)C)C(=O)N[C@H](C=O)CC(C)C [MG-154, reference compound] (Ac-Leu-Leu-Leu-aldehyde) |  |  |  | Ki ([1]; Table IV): 66 nM; Ki (Cathepsin B): 5 nM
CC(C)CC(C=O)NC(=O)C(CC(C)C)NC(=O)C(Cc1c[nH]c2ccccc12)NC(=O)OCc1ccccc1 (stereo not drawn) [MG-191, reference compound] (Cbz-Trp-Leu-Leu-aldehyde; configuration not given here) |  |  |  | Ki ([1]; Table IV): 0.38 nM; Ki (Cathepsin B): 0.54 nM
CC(C)C[C@H](NC(=O)[C@H](Cc1cccc2ccccc12)NC(=O)N1CCOCC1)B(O)O [MG-273, N-(4-Morpholine)carbonyl-β-(1-naphthyl)-L-alanine-L-leucine Boronic Acid] | 0.18 nM | 140 nM |  | Ki ([1]; Table IV): 0.18 nM; Ki (Cathepsin B): 200000 nM
CC(C)C[C@H](NC(=O)[C@H](Cc1cccc2ccccc12)NS(=O)(=O)c1cccc2cccnc12)B(O)O [MG-296, N-(8-quinoline)sulfonyl-β-(1-naphthyl)-L-alanine-L-leucine boronic acid] | 1.7 nM | 738 nM |  | Ki (Cathepsin G): 9200 nM; Ki ([1]; Table IV): 1.7 nM; Ki ([1]; Table V): 1.7 nM; % Inhibition of the DTH response (mice; dose 50 mg/kg): 60%; Ki (Cathepsin B): 4000 nM; Ki (Human Leukocyte Elastase): 36 nM
CC(C)C[C@H](NC(=O)[C@H](Cc1ccccc1)NC(=O)N1CCOCC1)B(O)O [MG-309, N-(4-morpholine)carbonyl-L-phenylalanine-L-leucine boronic acid] | 0.82 nM | 210 nM |  | Ki (Cathepsin G): 4800 nM; Ki ([1]; Table IV): 0.82 nM; Ki ([1]; Table V): 0.82 nM; % Inhibition of the DTH response (mice; dose 3 mg/kg): 40%; Ki (Cathepsin B): 132000 nM; Ki (Human Leukocyte Elastase): 7000 nM
CC(C)C[C@H](NC(=O)[C@@H]1CCCN1)B(O)O [MG-319] | 20 nM | 14000 nM |  | 
O=C(NC(Cc1ccccc1)B(O)O)C(Cc1cccc2ccccc12)NC(=O)N1CCOCC1 (centres unmarked) [MG-321] | 0.32 nM |  | 2400 nM | 
CC(C)CC(NC(=O)C(CCc1ccccc1)NC(=O)N1CCOCC1)B(O)O (centres unmarked) [MG-322] | 2.2 nM |  | 380 nM | 
N-Cbz-L-Leucine-L-leucine Boronic Acid [MG-274] | 3 nM |  | 340 nM | Ki ([1]; Table III, dipeptide boronic acid vs dipeptide aldehyde): 3 nM
β-(1-Naphthyl)-L-alanine-L-leucine Boronic Acid Hydrochloride Salt [MG-302] | 7.5 nM |  | 270 nM | 
β-(1-Naphthyl)-L-alanine-L-leucine Boronic Acid [MG-303] | 3.9 nM |  | 340 nM | 

Now from value to compound, other results behind:

Ki [1, 2] | IC50 (C2C12 cells; Mus musculus, C2C12) | IC50 (C2C12 cells) | Compound | other results
2.8 nM | 1100 nM |  | CC(C)C[C@H](NC(=O)[C@H](CCc1ccccc1)NC(=O)c1ccc2ccccc2n1)B(O)O [MG-325, N-(2quinoline)carbonyl-L-homophenylalanine-L-leucine boronic acid] | 
0.088 nM |  | 69 nM | CC(C)C[C@H](NC(=O)[C@H](Cc1cccc2ccccc12)NC(=O)c1ccccc1)B(O)O [MG-328] | 
0.03 nM |  | 48 nM | CC(C)C[C@H](NC(=O)[C@H](Cc1cccc2ccccc12)NC(=O)C1CCCCC1)B(O)O [MG-329] | 
2.1 nM | 220 nM |  | CN[C@@H](Cc1cccc2ccccc12)C(=O)N[C@@H](CC(C)C)B(O)O [MG-333] | 
0.25 nM | 100 nM |  | CC(C)C[C@H](NC(=O)[C@H](Cc1ccccc1)NC(=O)c1cccnc1)B(O)O [MG-336, N-(3-pyridine)carbonyl-L-phenylalanine-L-leucine boronic acid] | 
 | 69 nM |  | CC(C)C[C@H](NC(=O)[C@H](Cc1ccccc1)NC(=O)c1cnccn1)B(O)O [MG-341, N-(2-pyrazine)carbonyl-L-phenylalanine-L-leucine boronic acid] | % Inhibition of the DTH response (mice; dose 3 mg/kg): 90%; Ki (Cathepsin B): 160000 nM
0.42 nM |  | 57 nM | CC(C)C[C@H](NC(=O)[C@H](Cc1ccccc1)NC(=O)c1ccccn1)B(O)O [MG-343] | 
0.76 nM |  | 120 nM | CC(C)C[C@H](NC(=O)[C@H](Cc1ccccn1)NC(=O)c1ccccc1)B(O)O [MG-345] | 
1.1 nM |  | 150 nM | CC(C)C[C@H](NC(=O)[C@H](Cc1ccccn1)NC(=O)C1CCCCC1)B(O)O [MG-346] | 
29 nM |  | 13000 nM | CC(C)C[C@H](NC(=O)[C@H](Cc1ccccn1)NS(=O)(=O)c1cccc2cccnc12)B(O)O [MG-347] | 
0.14 nM |  | 160 nM | CC(C)C[C@H](NC(=O)[C@H](Cc1ccccc1)NC(=O)NCc1ccccc1)B(O)O [MG-350] | 
32 nM |  | 8100 nM | CC(C)C[C@H](NC(=O)[C@@H](N)Cc1ccccn1)B(O)O [MG-351] | 

— patent US6465433B1, “Boronic ester and acid compounds, synthesis and uses” (Millennium Pharmaceuticals, Inc., priority 1994, dated 2002)
